From US20230174454A1, “PROCESS OF SYNTHESIZING AND PURIFYING (3R)-HYDROXYBUTYL (3R)-HYDROXYBUTANOATE” (Genomatica, Inc., priority 2020, published 2023) come the findings set out here.

One data set in a line: Miscibility with water. The class given is physicochemical. From the text: In one specific embodiment, the compound of interest is (R)-3-hydroxybutyl (R)-3-hydroxybutanoate.
Data set [1] is described as follows: Study to determine the boiling point of (3R)-hydroxybutyl (3R)-hydroxybutyrate, with colour change on boiling. The class given is physicochemical. How it is done: A study to determine the boiling point of (3R)-hydroxybutyl (3R)-hydroxybutyrate was performed.

Take `C[C@@H](O)CCOC(=O)C[C@@H](C)O` [(3R)-hydroxybutyl (3R)-hydroxybutyrate, (R)-3-hydroxybutyl (R)-3-hydroxybutanoate]: the miscibility with water result in “Miscibility with water” (50/50 (w/w) mixture of water/(R)-3-hydroxybutyl (R)-3-hydroxybutanoate) and in “Miscibility with water” (60/40 (w/w) mixture of water/(R)-3-hydroxybutyl (R)-3-hydroxybutanoate) was “completely miscible with water” throughout. Further, the “Measured Boiling Point” value in data set [1] (Pressure 7 mbar) is 155-159 °C; in data set [1] (Pressure 15 mbar), 165-169 °C; in data set [1] (Pressure 30 mbar), 174-179 °C; in data set [1] (Pressure 60 mbar) it was 186-191 °C; in data set [1] (Pressure 80 mbar), 197-204 °C; in data set [1] (Pressure 120 mbar), 208-212 °C. For the same compound, the “Measured Boiling Point” value in data set [1] (Pressure 240 mbar) is 215-219 °C; in data set [1] (Pressure 500 mbar) it was 224-229 °C; in data set [1] (Pressure 1000 mbar), 274-280 °C. Also, the “Color Change” value in data set [1] (boiling at 7 mbar) was “no color change after 2 h of boiling”; in data set [1] (boiling at 15 mbar), “no color change after 2 h of boiling”; in data set [1] (boiling at 30 mbar), “no color change after 2 h of boiling”; in data set [1] (boiling at 60 mbar), “no color change after 2 h of boiling”; in data set [1] (boiling at 80 mbar), “no color change after 2 h of boiling”; in data set [1] (boiling at 120 mbar) it was “no color change after 1 h of boiling, very slight yellow tint is present after 1 h and 30 min of boiling”. Besides, the “Color Change” value in data set [1] (boiling at 240 mbar) is “no color change after 1 h of boiling, very slight yellow tint is present after 1 h and 30 min of boiling”; in data set [1] (boiling at 500 mbar), “no color change after 1 h of boiling, very slight yellow tint is present after 1 h and 30 min of boiling”; in data set [1] (boiling at 1000 mbar), “slight yellow tint is present after 1 hour of boiling”.
